Source: patent US7704502B2, “Combinations of antibodies selective for DR5 and other therapeutic agents” (The UAB Research Foundation, priority 2000, dated 2010)
Residues, ends and D or L forms follow the SMILES beside them. *: point of attachment. Cbz = O=C(OCc1ccccc1)*; CH2F = FC*

How the values were obtained:
[1] = test system: 2LMP human breast cancer xenografts; experiment: TRA-8 therapy alone or with chemotherapy or radiation, breast cancer xenografts; assay type: in vivo, athymic nude mice
Method: Athymic nude mice were injected s.c. with 3×10^7 2LMP cells. […] The growth of tumors was monitored over time. […] Tumor size and regression rates were determined.
Data from 6 independent experiments were analyzed by individual experiment. Treatment combinations were compared with respect to in vivo anti-tumor efficacy, i.e., inhibition of tumor growth, which was measured as three endpoints; extension of tumor doubling times, percentage of tumor regressions, and growth rates over time. The actual number of days at which the tumor doubled in surface area (product of two diameters) relative to baseline on day 7 after tumor cell injection was used in the doubling time analysis. The nonparametric Kruskal-Wallis test was used for median tumor doubling time comparisons between treatments. Fisher's exact test was used to compare the proportions of tumor regressions and relapse-free regressions across treatment groups. To determine if any combination therapy produced significant synergistic inhibition of tumor growth, i.e., more than additive, the growth curves from the serial area measurements were compared using a linear mixed model approach over the first 3 weeks after start of therapy (Lindsey, J. K. Models for Repeated Measurements, pp. 100-142, Oxford, 1993). To test for synergistic effects of the combination therapies, an interaction term was included in the model. If the interaction term was significant and the effect was inhibition of growth at a rate greater than additive then the interaction was considered synergistic.
A total of 166 animals, 10 treatment groups, and 6 independent experiments were included in the aggregate analysis. Treatment combinations were compared with respect to in vivo anti-tumor efficacy. The median tumor doubling times were analyzed using the Kruskal-Wallis test and Fisher's exact test was used to compare the proportions of tumor regressions and relapse-free regressions across treatment groups.

2LMP xenografts = experiment: Analysis of apoptosis in xenografts (TUNEL); assay type: in vivo, athymic nude mice; settings: day 14
Method: One group of mice was untreated. The xenografts were dissected for the study of apoptosis on day 14 after tumor cell injection. The reason for the substantial reduction in treatment intensity compared to our standard treatment protocol was to allow adequate tumor tissue for analysis on day 14. Tunel assay for apoptosis in tumor xenografts was performed as follows. Five-micron paraffin sections of tissue were mounted on Superfrost/Plus slides and heated at 58° C. for 1 h. Tissue sections were deparaffinized in three changes of xylene and rehydrated with one change of absolute ethanol, 95% ethanol, and 70% ethanol, each in 5-min increments. Then, the sections were placed in Tris-buffered saline (0.5M Tris base, 0.15 M NaCl, 0.0002% Triton X-100™, pH 7.6). Apoptotic nuclei were detected using an Apop Tag Peroxidase kit (Intergen, Purchase, N.Y.). Proteinase K (20 μg/ml in distilled deionized H2O) was added to the tissue specimens and incubated at room temperature for 15 min. Endogenous peroxidases were quenched with an aqueous solution of 3% hydrogen peroxide for 5 min. Sections were treated with an equilibration buffer for 30 min and then incubated with the TdT/enzyme (diluted in labeling reaction mix) for 1 h at 37° C. using parafilm covers. During this incubation, the TdT enzyme binds the 3′-OH ends of DNA fragments and catalyzes the addition of digoxigenin-labeled and unlabeled deoxynucleotides. Negative controls were incubated with distilled H2O (diluted in labeling reaction mix) instead of the TdT enzyme. A stop buffer was added for 10 min at room temperature to terminate the labeling reaction. An anti-digoxigenin conjugate was added to each slide for 30 min. The chromagen 3,3′ DAB was used to visualize the labeled 3′ OH end of DNA fragments. The slides were then rinsed in deionized water and lightly counterstained with hematoxylin, dehydrated using graded alcohols and xylene and coverlsipped using Permount. Approximately 10 random fields were evaluated for percentage of Tunel stained and percentage of intensely stained apoptotic bodies throughout the tissue.

Jurkat cells = experiment: Jurkat cell viability after overnight culture (ATPLite, MTT, PI exclusion); assay type: cell-based, human; settings: 50 ng/ml TRA-8 overnight plus caspase inhibitor
Method: (§1) Cell viability is determined using (1) the ATPLite® kit according to the manufacturer's instructions (Packard Instruments, Meriden, Conn.); (2) the MTT Cell proliferation/viability kit (Sigma); or (3) PI staining of dead cells and analyzed by flow cytometry. At end of culture, cells are stained with 10 μg/ml PI and PI negative cells are gated as viable cells. For analysis of condensed nuclei of hepatocytes, cells are stained with 10 ng/ml Hoechst 33352 (Molecular Probes) and analyzed by flow cytometry.

MMP-1, 3, and 13 = experiment: Production of MMPs by RA synovial cells (ELISA); assay type: cell-based, human; settings: overnight; 50 ng/ml interleukin 1b, 10 ng/ml TNF-a, 50 ng/ml TRAIL or TRA-8; vs medium control
Method: Thus, it is possible that TRAIL, like TNF-α, may serve as a pro-inflammatory cytokine. […] The levels of the MMP-1 and MMP-3 in the culture supernatants are determined by the ELISA kits.

NF-κb = experiment: Gel-shift assay of NF-κb activation in RA synovial cells; assay type: cell-based, human; settings: 50 ng/ml TRAIL, Fas ligand or TRA-8; 20 ng/ml TNF-a
Method: There is considerable evidence to support the concept that there are close links between the signaling of apoptosis and the signaling of proliferation (45). It has been established that DR5 is able to activate a NF-kb pathway in addition to apoptosis signaling transduction, and that NF-κb activation may be able to transduce an anti-apoptosis signal. Therefore a gel-shift assay is carried out. […] The nuclear extracts are prepared and incubated with the […] [^32P]-labeled oligo-DNA probe. The results are analyzed using the cyclone phospha-imager (TopCount NXT, Packard Instrument Company, CT).

[2] = test system: glioma cell lines Hs683 and U251-MG; experiment: Apoptosis susceptibility (ATPLite, overnight); assay type: cell-based, human
Method: as §1

Jurkat and CEM-6 = experiment: Apoptosis susceptibility (ATPLite, overnight); assay type: cell-based, human; settings: TRAIL plus crosslinker
Method: as §1

Molt-4 and U937 cells = experiment: Apoptosis susceptibility (ATPLite, overnight); assay type: cell-based, human; settings: TRAIL plus crosslinker
Method: as §1

U87, U937 and Molt-4 = experiment: Apoptosis susceptibility (ATPLite, overnight); assay type: cell-based, human
Method: as §1

primary B cells = experiment: Apoptosis susceptibility (ATPLite, overnight); assay type: cell-based, human; settings: TRAIL plus crosslinker
Method: as §1

[3] = test system: B lymphoma cell lines SKW6.4, EB-3, and Raji; experiment: Apoptosis susceptibility (ATPLite, overnight); assay type: cell-based, human; settings: TRAIL plus crosslinker
Method: as §1

[4] = test system: Primary peripheral blood T cells; experiment: Apoptosis susceptibility (ATPLite, overnight); assay type: cell-based, human; settings: TRAIL plus crosslinker
Method: as §1

Daudi = experiment: Apoptosis susceptibility (ATPLite, overnight); assay type: cell-based, human; settings: TRAIL plus crosslinker
Method: as §1

H-9 cells = experiment: Apoptosis susceptibility (ATPLite, overnight); assay type: cell-based, human; settings: TRAIL plus crosslinker
Method: as §1

normal human hepatocytes = experiment: Hepatocellular toxicity, cell viability (ATPLite); assay type: cell-based
From the text: For 24-hour cell viability assays, fresh normal human hepatocytes in 96-well plates were purchased from In Vitro Technology (Baltimore, Md.). […] For 6-hour viability assays, normal hepatocytes or hepatocellular cancer cells are isolated from fresh surgical specimens collected from UAB Tissue Procurement Center. All reagents for isolation of human hepatocytes including hepatocytes perfusion buffer, digest medium, washing medium, and attachment medium were purchased from Gibco. The tissue slides are digested in the Hepatocyte Digest Medium at 37° C. with shaking (50 rpm) for one hour. The isolated hepatocytes are harvested by low speed centrifugation (50 g, 3 min), and washed with the Hepatocyte Washing Medium six times. Single cell suspension of hepatocytes are cultured in the Attachment Medium containing 10% FCS in 96-well Matrigel plates (BD) for six hours. Non-attached hepatocytes are removed by twice washing with pre-warmed attachment medium.

DR5 = target: T1, DR5 (Homo sapiens, UniProt O14763); experiment: ELISA binding of TRAIL and TRA-8 to the receptors
T1 construct: fusing cDNA from residues 1-180 of the extracellular portion of DR5; made in house; host or cells: QBI-293A cells, recombinant adenovirus (pAdΔDR5-Fc)
T1 sequence (O14763 56-180): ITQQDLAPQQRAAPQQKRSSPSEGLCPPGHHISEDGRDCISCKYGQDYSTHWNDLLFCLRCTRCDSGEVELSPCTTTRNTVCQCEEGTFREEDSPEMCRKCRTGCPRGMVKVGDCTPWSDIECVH
From the text: (§2) The reactions are developed by TMB substrate buffer and measured by the Benchmark Microplate Reader (BioRad). The Kd values are estimated by the one-site binding model of non-linear regression using GraphPad Prism® software (GraphPad Software, San Diego, Calif.).

[5] = test system: SV40 transformed synovial cells; experiment: Apoptosis of synovial cells; assay type: cell-based, human; settings: data not shown
HepG2 cells = experiment: Cell viability (ATPLite); assay type: cell-based, human; settings: 8-hour culture period
OA72M cells = experiment: Apoptosis of primary synovial cells; assay type: cell-based, human
From the text: (§3) Cell viability is the percentage of the cpm of treated cells versus the cpm of untreated cells.
(§4) The expression of DR5 on a panel of eight primary cultured synovial cells from patients with RA is compared with that on eight primary cultured synovial cells from patients with osteoarthritis (hereinafter referred to as “OA”). The eight human primary RA synovial cell cultures RA-1014, RA-1016, RA-1021, RA-512, RA-707, RA-811, RA-716, and RA-929 are kindly provided by Dr. M. Ohtsuki (Sankyo Co. Ltd., Tokyo, Japan) and cultured in DMEM supplemented with 10% FCS, penicillin, streptomycin, and glutamine. The […] OA synovial cell primary cell cultures are isolated from the synovial tissues of OA patients by a standard collagenase method and cultured under the same conditions. The passage number of all primary cells is under 10. The expression of DR5 is determined by FACs analysis as described in Example 5.

[6] = test system: RA-1014, RA-811, RA-716, and RA929; experiment: Apoptosis of primary synovial cells; assay type: cell-based, human; settings: high concentrations (>50 ng/ml)
From the text: as §3, §4

[7] = Induction of hepatitis in vivo by tetracycline-inducible adenoviral vectors; set-up: species or system B6 mice; settings: 10 μg in Ad/TRAIL inoculated mice, AST at 24 hours
Method: 8-10 week-old female B6 mice are intravenously injected with 10^9 pfu of Ad/hTRAIL with the equal number of Ad/Tet-on. Mice are fed with different concentrations of tetracycline in their drinking water immediately after inoculation of adenoviral vectors. Liver injury is determined by serum levels of AST using an AST diagnostic kit (Sigma). Expression of TRAIL is determined by Northern blot analysis.

[8] = test system: non-transformed fibroblast cells; experiment: Apoptosis of fibroblast cells; assay type: cell-based
DR4 = target: T2, DR4 (Homo sapiens, UniProt O00220); experiment: ELISA binding of TRAIL and TRA-8 to the receptors
T2 construct: a fusion protein comprising the extracellular domain of human DR5 or DR4 and the Fc region of human IgG1; human IgG1 Fc (Ig)
T2 sequence (O00220 24-239 limits assumed): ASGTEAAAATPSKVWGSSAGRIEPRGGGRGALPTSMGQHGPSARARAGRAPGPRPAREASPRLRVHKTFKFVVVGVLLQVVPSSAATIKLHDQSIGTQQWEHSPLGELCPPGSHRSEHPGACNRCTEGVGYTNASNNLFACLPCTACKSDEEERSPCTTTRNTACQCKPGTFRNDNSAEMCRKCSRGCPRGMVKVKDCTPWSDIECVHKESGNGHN
Method: as §2, with “ELISA plates are coated with 2 μg/ml of DR4-Ig or DR5-Ig fusion protein overnight. […] The reactions” for “The reactions”

[9] = aggregate of 6 experiments, number of animals (%)
[10] = aggregate of 6 experiments, relative to day 7

In the case of `COc1cccc2c1C(=O)c1c(O)c3c(c(O)c1C2=O)C[C@@](O)(C(=O)CO)C[C@@H]3O[C@H]1C[C@H](N)[C@H](O)[C@H](C)O1` [Adriamycin, adriamycin (doxorubicin)], the “Complete Regressions No relapse (%)” value [1, 9] is reported as 0, the “Complete Regressions Total (%)” value [1, 9] is reported as 0 and the “Tumor Doubling Time (mean)” value [1, 10] is reported as 17 days. The “Tumor Doubling Time (median)” value [1, 10] was 18 days, the “inhibition of tumor growth compared to untreated controls” value ([1]; individual experiments, TRA-8 200 μg i.p. x6, adriamycin 6 mg/kg, paclitaxel 20 mg/kg, 3 Gy 60Co, Kruskal-Wallis on doubling times) was “did not differ from controls” and the TUNEL stained cells (2LMP xenografts; 100 μg TRA-8 days 7, 10, adriamycin 3 mg/kg or paclitaxel 10 mg/kg days 8, 11, untreated 4%) was 8%. It also gave an intensely stained cells (2LMP xenografts; same regimen, untreated 1%) of 6%.

With `CC(NC(=O)C(NC(=O)OCc1ccccc1)C(C)C)C(=O)NC(CC(=O)O)C(=O)CF` (stereo not drawn) [Z-VAD] (Cbz-Val-Ala-Asp-CH2F; configuration not given here) the “inhibition of TRA-8-induced cell death” value (Jurkat cells) was “completely inhibited”.

In the case of IL-1b: proinflammatory cytokine, the “production/release of MMPs” value (MMP-1, 3, and 13) is reported as “increased”.

With TNF-α the NF-κb activation (NF-κb) was “activated in a time-dependent fashion” and the “production/release of MMPs” value (MMP-1, 3, and 13) was “increased”.

With “TRAIL: soluble recombinant human TRAIL (aa 95 to 281) FLAG-tagged fusion protein, Alexis; used with anti-FLAG crosslinker” the susceptibility to apoptosis [2] was “resistant”, the susceptibility to apoptosis (Jurkat and CEM-6) was “highly susceptible” and the susceptibility to apoptosis (Molt-4 and U937 cells) was “partially susceptible”. The susceptibility to apoptosis (U87, U937 and Molt-4) was “exhibited sensitivity”, the susceptibility to apoptosis (primary B cells) was “did not undergo apoptosis” and the susceptibility to apoptosis [3] was “very susceptible”. For the same molecule, the susceptibility to apoptosis [4] was “resistant”, the susceptibility to apoptosis (Daudi) was “much less susceptible” and the susceptibility to apoptosis (H-9 cells) was “resistant”. For the same molecule, the NF-κb activation (NF-κb) was “activated in a time-dependent fashion”, the “hepatocytes killed in the presence of cycloheximide” value (normal human hepatocytes; 1 μg/ml TRAIL or TRA-8, 1 μg/ml cycloheximide, four-hour culture) was “greater than 70%” and the hepatocytes killed (normal human hepatocytes; 1 μg/ml, end of 24-hour culture, TRAIL plus crosslinker) was “more than 80%”. The hepatocytes killed (normal human hepatocytes; 6-hour culture, 500 ng/ml) was “Over 20%”, the “production/release of MMPs” value (MMP-1, 3, and 13) was “not associated with increased release” and the “binding to immobilized DR5” value (DR5) was “bound comparably”. For the same molecule, the susceptibility to apoptosis [5] was “susceptible”, the cells killed (HepG2 cells) was about 100% and the susceptibility to apoptosis (OA72M cells) was “completely resistant”. For the same molecule, the cell death [6] was about 100%, the “liver injury after intravenous injection” value [7] was “did not exhibit increased liver injury” and the susceptibility to apoptosis [8] was “resistant”. The “binding to DR4” value (DR4) was “bound to DR4”.

B1: Fas ligand: soluble Fas ligand used with enhancer/crosslinker (protein, UniProt P48023 103-281, looked up)
extracellular domain: QLFHLQKELAELRESTSQMHTASSLEKQIGHPSPPPEKKELRKVAHLTGKSNSRSMPLEWEDTYGIVLLSGVKYKKGGLVINETGLYFVYSKVYFRGQSCNNLPLSHKVYMRNSKYPQDLVMMEGKMMSYCTTGQMWARSSYLGAVFNLTSADHLYVNVSELSLVNFEESQTFFGLYKL
modifications: extracellular domain
notes: soluble Fas ligand used with enhancer/crosslinker
With B1 the NF-κb activation (NF-κb) was “unable to induce” and the “difference in susceptibility among normal hepatocytes, hepatocellular carcinoma cells, and HepG2 cells” value (normal human hepatocytes; Fas-mediated apoptosis, 6 hours) was “no significant difference”.
